# Test results taken from patent US6900221B1, “Stable polymorph on N-(3-ethynylphenyl)-6, 7-bis (2methoxyethoxy)-4-quinazolinamine hydrochloride, methods of production, and pharmaceutical uses thereof” (OSI Pharmaceuticals, Inc., priority 1999, dated 2005).
# Experiments:
# [1] = Solubility in aqueous compositions; type: physicochemical; settings: compared with the hydrochloride compound
# [2] = Thermodynamic stability of the polymorphic forms; type: physicochemical; settings: hydrochloride polymorph forms compared
# [3] = tested on: advanced head and neck cancer; assay: Phase II single agent study in advanced head and neck cancer; settings: 150 mg daily
# [4] = Phase I clinical studies, safety; type: in vivo, human
# Experimental: […]. […] In a daily dosing regimen study the dose limiting toxicity at 200 mg/day was diarrhea. This observed side effect was effectively controlled at the 150 mg daily dose level using Loperamide (Imodium®). […] The rash has a unique histopathology of PMN infiltration with mild epidermal hyperproliferation. It is not consistent with drug hypersensitivity nor does it appear to be a “named” dermatological condition. This rash has not been a significant impediment to patients staying on the Phase II trials. […]. […] For example, in one Phase I study of 28 patients, 8 patients remain alive over a year after inception of treatment and 12 patients remained alive from 9-22 months.
# [5] = tested on: refractory non-small cell lung cancer (NSCLC); settings: 150 mg daily, first 19 evaluable patients
# Text: Qualification criteria for the open label, single agent study required the patients to have failed platinum-based chemotherapy and to have tumors that are histopathologically confirmed to be EGFR positive. The primary endpoint in the study is response rate with stable disease and time-to-progression amongst the secondary end-points.
# [6] = tested on: refractory ovarian cancer; assay: Phase II single agent study in refractory ovarian cancer; type: in vivo, human; settings: 150 mg daily, preliminary results
# Text: Evidence of anti-tumor activity can also be seen in the patients with ovarian cancer in the on-going Phase II study.
# [7] = tested on: cancer patients with multiple tumor types; assay: Phase I clinical studies, preliminary evidence of effectiveness in cancer patients; type: in vivo, human; settings: one Phase I study of 28 patients
# [8] = advanced head and neck cancer, preliminary results
structure (smiles),measurement,setting,value
"C#Cc1cccc(Nc2ncnc3cc(OCCOC)c(OCCOC)cc23)c1 [mesylate compounds, N-(3-ethynylphenyl)-6,7-bis(2-methoxyethoxy)-4-quinazolinamine]",solubility in aqueous compositions,[1],more soluble
"C#Cc1cccc(Nc2ncnc3cc(OCCOC)c(OCCOC)cc23)c1.Cl [polymorph A, N-(3-ethynylphenyl)-6,7-bis(2-methoxyethoxy)-4-quinazolinamine hydrochloride]",thermodynamic stability,[2],thermodynamically less stable
"C#Cc1cccc(Nc2ncnc3cc(OCCOC)c(OCCOC)cc23)c1.Cl [polymorph B, N-(3-ethynylphenyl)-6,7-bis(2-methoxyethoxy)-4-quinazolinamine hydrochloride]",patients with objective partial responses,[3]; [8],3 patients
same,patients with stabilization of disease status,[3]; [8],9 patients
same,patients reporting acneiform rash,[3]; first group of patients in the head and neck cancer study,approximately 70%
same,thermodynamic stability,[2],thermodynamically most stable
same,most significant toxicity,[4]; 150 mg daily,monomorphic acneiform rash
same,severity of adverse events,"[4]; Phase I, volunteers and cancer patients, dose of 150 mg/day",no adverse events that were greater than moderate in severity
same,dose limiting toxicity,"[4]; daily dosing regimen study, 200 mg/day",diarrhea
same,safety profile,[4]; total of 290 patients in Phase I and ongoing Phase II studies,well tolerated safety profile
same,patients with objective partial responses,[5],5 patients
same,patients with stabilization of disease status,[5],4 patients
same,patients with objective partial responses,[6],2 patients
same,patients with stabilization of disease status,[6],4 patients
same,patients alive over a year after inception of treatment,[7],8 patients
same,patients remained alive from 9-22 months,[7],12 patients
"C#Cc1cccc(Nc2ncnc3cc(OCCOC)c(OCCOC)cc23)c1.Cl [hydrochloride compound, [6,7-bis(2-methoxyethoxy)-quinazolin-4-yl]-(3-ethynylphenyl)amine hydrochloride, reference compound]",thermodynamic stability,[2],partially reduced stability
